The source of these data is a melting point compilation (Tetko et al.; mined from patent text by program, amines drawn as free bases though some values may be those of a salt).

The term melting point denotes the temperature of the solid-liquid transition. On to `CC(OC(C)c1ccc(-c2ccc(Cl)cc2)cc1)C(=O)O` (stereo not given), for which the melting point was 144 to 146 °C.

Consider `Cc1oc(-c2ccc(C(F)(F)F)cc2)nc1-c1ccc2c(Br)c(OCC(=O)O)ccc2c1`, for which the melting point lay in the range of 212 to 214 °C.

`N[C@@H](Cc1ccc(C(F)(F)F)cc1)[C@H](O)c1ccc(F)cc1F` (racemic) gave a melting point of 99 to 100 °C.

As to `CCOC(=O)CC(=O)C=CNc1cc(C)no1`, the melting point is 93 to 95 °C.

Molecule `Cn1cnc2nc(C=Cc3ccc(Cl)cc3)nn2c1=S` showed a melting point of over 300 °C.

`CS(=O)(=O)c1ccc(-c2nc(C(F)(F)F)nc(N=[N+]=[N-])c2-c2ccc(F)cc2)cc1` had a melting point of 285 to 288 °C.

In the case of `Oc1nc(Cl)n(-c2ccccc2)n1`, the melting point was in the range of 147 to 149 °C.

In turn, `CCOC(=O)C1=C(O)c2cc(OC)c(OC)cc2NC(=O)C1` had a melting point of 218 °C.

`CC(C)(C)c1cc(C=C2CC(C)(C)N(C(N)=O)C2=O)cc(C(C)(C)C)c1O` displayed a melting point of 200 to 203 °C.

As for `COc1cc(Cc2cnc(N)nc2NO)cc(OC)c1OC`, the melting point lay in the range of 208 to 210 °C.

Regarding `Cc1ccc2c(c1)nc(C)c(=O)n2-c1ccc(Cl)cc1`, the melting point was 223 to 225 °C.

For `CC(C)(Cc1ccccc1)C(NC(=O)c1cccnc1)Nc1c(Nc2cccnc2)c(=O)c1=O` (stereo not given), the melting point fell in the range of 220 to 222 °C.

`C=CCNC1=NS(=O)(=O)c2cc(Cl)cnc2N1` yielded a melting point of 224 to 227 °C.

The molecule `CCCc1c(CCC(=O)O)cnn1Cc1ccc(OCc2nc(-c3ccccc3)oc2C)cc1` came in with a melting point of 158 to 159 °C.

For `Oc1ccc(SCc2cc(O)c(O)c(O)c2)cc1`, the melting point amounted to 158 °C.

Consider `CC1=C(C(=O)NCc2ccncc2)SCN1n1ccc(O)cc1=O`, for which the melting point is 275 to 278 °C.

`Cc1oc(-c2ccccc2)nc1CCOc1ccc(C[C@H](NC(=O)C=Cc2ccc(F)cc2F)C(=O)O)cc1Br` had a melting point of 221 to 223 °C.

With `CN1CCC(c2cc(F)ccc2F)(S(=O)(=O)c2ccc(Cl)cc2)CC1`, the melting point lay in the range of 172 to 175 °C.

`Cc1ccc(S(=O)(=O)n2c(I)cc3cc(F)cnc32)cc1` displayed a melting point of 158 °C.

As to `NC(=O)NN=C(CCl)COc1ccc(Cl)cn1`, the melting point is 115 to 117 °C.

`COC(=O)C1Cc2sc3c(c2C1)C(c1ccccc1Cl)=NCC(=O)N3` (stereo not given) showed a melting point of 178 to 181 °C.

Regarding `CCCc1c[nH]c(=O)[nH]c1=O`, the melting point fell in the range of 286 to 287 °C.

In the case of `COc1ccc2cc(-c3cnc(Cc4ccc5ccccc5c4)o3)ccc2c1`, the melting point lay in the range of 159 to 162 °C.

In the case of `CSc1ccc(CN2CCC(=O)C(C(c3ccccc3)c3ccccc3)C2)cc1` (stereo not given), the melting point was in the range of 126 to 128 °C.

For `O=C(O)c1cc(Cl)c2cccnc2c1O`, the melting point is 285 to 287 °C.

`OCC#Cc1ccccn1` came in with a melting point of 78 to 80 °C.

The molecule `Cc1noc(-c2ncn3c2[C@@H]2CCCN2C(=O)c2c-3ccc(F)c2Cl)n1` came in with a melting point of 245 to 246 °C.

For `Cc1cc(Cl)cc(Cl)c1N1CCn2c1nc1c(Cl)ccc(C(O)(C3CC3)C3CC3)c12`, the melting point is 193 to 196 °C.

For the molecule `O=C(CCC(=O)N1CCC(c2ccc(Cl)cc2)CC1)c1ccc2c(c1)CCNCC2`, the melting point was 148 to 149 °C.

`CC(C)(C)OC(=O)N1CCCC2(CCN(c3ccc4nc(-c5ccc(F)cc5)c(-c5ccnc6[nH]ccc56)n4n3)CC2)C1` came in with a melting point of 192 to 193 °C.

For the molecule `CN(C)C=Nc1cccc2nc(N3CCN(C)CC3)c(N3CCN(C)CC3)nc12`, the melting point fell in the range of 183 to 186 °C.

Regarding `CC(C)(C)OC(=O)CC[C@H](NC(=O)c1ccc(N)cc1F)C(=O)OC(C)(C)C`, the melting point is 91 to 95 °C.

For `CCOC(=O)C1=Cc2cc(C#N)ccc2NC1C(F)(F)F` (stereo not given), the melting point is 211 to 212 °C.

For the molecule `COc1ccc(-c2ccc3cc(C(=O)O)ccc3c2)cc1C12CC3CC(C)(CC(C)(C3)C1)C2`, the melting point fell in the range of 258 to 263 °C.

Molecule `CCOC(=O)CC1c2cccn2S(=O)(=O)c2ccccc2N1C(=O)c1ccccc1` (stereo not given) yielded a melting point of 178 to 181 °C.

`CC1(C)OC(=O)Nc2ccc(-c3cccc(C#CC#N)c3)cc21` showed a melting point of 212 to 213 °C.

`COc1cccc(NC(C)=O)c1C(=O)NC1CCN(C(C)CC(C(=O)N(C)C)(c2ccccc2)c2ccccc2)CC1O` (stereo not given): the melting point was 146 °C.

`CCC1CCc2c(sc3cc(OCc4ccccc4)ccc3c2=O)C1` (stereo not given) had a melting point of 94 °C.

For the molecule `C=C1CC2(C)C(=O)CC(O)C2C2CCC3=CC(=O)CCC3C12` (stereo not given), the melting point turned out to be 237 °C.

As to `CCCCCCC1(Br)CC(=CNc2ccccc2)OC1=O` (stereo not given), the melting point is 147 to 148 °C.

`CCc1nn(C2CCCC2)c2c1CCNC2=O`: the melting point is 152 to 153 °C.

`CCOc1noc2c1CN(C(=O)OC)CC2` returned a melting point of 95 to 98 °C.

The molecule `O=c1c2ccccc2ncn1CCN1CCC(c2c[nH]c3ccccc23)CC1` showed a melting point of 90 °C.

`CCOC(=O)/C=C/c1ccc(OC(C)C)cc1Oc1ncc(C(F)(F)F)cc1Cl` had a melting point of 84.5 to 85 °C.

For the molecule `Cc1ccc(N2CCN(c3c(C)c(C)c4c(c3C)CC(C)(C)O4)CC2)cc1`, the melting point fell in the range of 152 to 155 °C.

As for `CCOC(=O)c1sc(SC)c2c1CCc1cn[nH]c1-2`, the melting point was 207 to 208 °C.

In turn, `CCOC(=O)C(=O)Nc1ccc(S(N)(=O)=O)cc1[N+](=O)[O-]` showed a melting point of 193 to 195 °C.

`O=C(O)CCC(O)c1ccc(-c2ccc(Cl)cc2)cc1` (stereo not given) yielded a melting point of 134 to 135 °C.

On to `NC(=O)COc1ccc2c(-c3ccccc3F)noc2c1Cl`, for which the melting point turned out to be 172 °C.

`CCOC(=O)C1=C2CC=CC=C2N(C(=O)OCC)CCC1` displayed a melting point of 60 °C.

As for `CC(C)N1CCN(CCN2CCN(c3cn(-c4ccc(F)cc4)c4cc(Cl)ccc34)CC2)C1=O`, the melting point was 176 to 177 °C.

`O=C(O)c1ccc(N2CCOCC2)cc1C(=O)O` registered a melting point of 178 to 180 °C.

As for `N#CCOC(=O)c1ccc(CNC(=O)CCCCCN2C(=O)C=CC2=O)cc1O`, the melting point lay within 141 to 144 °C.

As for `Cc1cc(C(F)(F)F)cc(=O)n1C`, the melting point is 80 to 82 °C.

The molecule `CNc1cc(CC(C)C)ccc1-c1ccccc1S(=O)(=O)Nc1onc(C)c1C` showed a melting point of 125 to 128 °C.

In the case of `Cc1ccnc(C(O)c2ccc(N)cc2C(F)(F)F)c1` (stereo not given), the melting point lay in the range of 120 to 123 °C.

As for `N#CCS(=O)(=O)c1ccc([N+](=O)[O-])cc1`, the melting point fell in the range of 166 to 168 °C.

`COc1ccc2cccc(N)c2c1` had a melting point of 134 to 136 °C.

`O=c1nc(NCCCOc2cccc(CN3CCCCC3)c2)c2ccccc2[nH]1` showed a melting point of 219 to 221 °C.

`CC(C)C[C@@H](OC(=O)c1cc(Cl)ccn1)C(=O)O`: the melting point lay within 120 to 122 °C.

In the case of `CC(C)CCCC(C)C1CCC2C3CC=C4CC(Br)CCC4(C)C3CCC12C` (stereo not given), the melting point fell in the range of 99.5 to 100 °C.

As for `COC(=O)CCCCCCCNC(=O)C(CO)NS(=O)(=O)c1ccc(Cl)cc1` (racemic), the melting point was in the range of 88 to 92 °C.

With `CC(=O)c1cccc2cc[nH]c12`, the melting point lay within 65 to 66 °C.

Molecule `CC1(C)C(=O)Oc2ccc3ccc(Cn4cnnc4)cc3c21` showed a melting point of 256 to 257 °C.

`OCC(O)COC(c1ccccc1)(c1ccccc1)c1ccccc1` (stereo not given): the melting point was in the range of 108 to 110 °C.
